How the values were obtained:
[1] = rectal drug bioavailability in rats, aqueous microenema with α-keto aldehyde absorption enhancer, versus intravenous administration; assay type: in vivo; details: 10 mg/kg
Procedure: Aqueous microenemas were administered to rats at an intrarectal depth of 2.5 cm containing 10 mg/kg target drug and 20 mg/kg α-keto aldehyde absorption enhancer. Serum samples were collected and drug bioavailability determined versus intravenous administration of the target compound. Glyoxylic acid, methylglyoxal and phenylglyoxal were tested as representative compounds in the α-keto aldehyde series. Data has been oriented for rectal delivery of two antibiotics (shown below).

[2] = rectal absorption of Ara-C with methylglyoxal or phenylglyoxal; details: in vivo
Description: Effect of methylglyoxal and phenylglyoxal on rectal absorption of Ara-C, 4-Amino-1β-D-Arabinofuranosyl-2(1H)-pyrimidinone (Cytarabine), an antineoplastic, antiviral agent
Ara-C present at 1% w/v concentration

[3] = rectal absorption of cyclic hexapeptide somatostatin analog with phenylglyoxal; details: rat, in vivo, 0.4 mg, pH 5, rectal, 0.4 mg peptide, 250 μl, read-out: Percent Bioavailability
Procedure: (§1) Effect of Phenylglyoxal on Rectal and Duodenal Absorption of a Cyclic Hexapeptide Somatostatin Analog Specifically Cyclo-(N-Me-Ala-Tyr-D-Trp-Lys-Val-Phe)
(§2) 250 μl volume, pH 5/animal
(§3) Cyclo-(N--Me--Ala--Tyr--D-Trp--Lvs--Val--Phe)
microenema 250 μl at 2.5 cm intrarectal depth

[4] = duodenal absorption of cyclic hexapeptide somatostatin analog with phenylglyoxal; details: rat, in vivo, 0.4 mg, pH 5, duodenal, 0.4 mg peptide, 250 μl, read-out: Percent Bioavailability
Procedure: as §1, §2, §3
duodenal 250 μl injection 1 cm distal to pylorus

CO[C@@]1(NC(=O)Cc2cccs2)C(=O)N2C(C(=O)O)=C(COC(N)=O)CS[C@@H]21 [sodium cefoxitin, (6R-cis)-3-[[(Aminocarbonyloxy]methyl]-7-methoxy-8-oxo-7-[(2-thienylacetyl))amino]-5-thia-1-azabicyclo-[4.2.0]oct-2-ene-2-carboxylic acid]
bioavailability ([1]; rat, in vivo): 5%

O=CC(=O)c1ccccc1 [Phenylglyoxal, phenyl glyoxal]
% Bioavailability of Ara-C [2]: 70.5%
0 min-90 min (quantity head is drawing 2) of Ara-C ([2]; 90 min): 798 ± 71.0 µg·min/mL

Nc1ccn([C@@H]2O[C@H](CO)[C@@H](O)[C@@H]2O)c(=O)n1 [Ara-C, 4-Amino-1β-D-Arabinofuranosyl-2(1H)-pyrimidinone, reference compound]
bioavailability ([2]; rectal, Ara-C 1% w/v, adjuvant: none): 13.1%
AUC at 1.5 h ([2]; rectal, Ara-C 1% w/v, adjuvant: none, 0-90 min, read-out: 0 min-90 min (quantity head is drawing 2) of Ara-C (converted)): 1250 ng·h/mL

CC(C)[C@@H]1NC(=O)[C@H](CCCCN)NC(=O)[C@@H](Cc2c[nH]c3ccccc23)NC(=O)[C@H](Cc2ccc(O)cc2)NC(=O)[C@H](C)N(C)C(=O)[C@H](Cc2ccccc2)NC1=O [Cyclo-(N-Me-Ala-Tyr-D-Trp-Lys-Val-Phe)]
bioavailability ([3]; phenylglyoxal 0 mg/ml): 7%
bioavailability ([3]; phenylglyoxal 25 mg/ml): 34%
bioavailability ([4]; phenylglyoxal 0 mg/ml): 1%
bioavailability ([4]; phenylglyoxal 25 mg/ml): 20%

gentamicin sulfate
% bioavailability, control formulations ([1]; rectal, control formulation without keto aldehyde adjuvant, mean, 3 animals): 5%
